# Like-named read-outs stand apart in the source and are kept apart here. Numbered stars: 1 amine (or outer) side, 2 acyl side, 3 side chain; on linkers, the order of the positions; unused ones are H or OH. Bridge positions count the residues as written; N and C are the ends. Peptide text beside a SMILES is read from it. I, II: the chains in the order shown. OSi(nPr)2O = CCC[Si](CCC)(O[*:1])O[*:2]; X1 = C[Si](C)(O[*:1])O[*:2]
# Columns and labels:
# Medulloblastome [1] = assay: Effect on medulloblastomas
# HIV-Vren = assay: Antiviral effect; details: in particular as vesicles holding antisense constructs
# Entero-Viren [2] = assay: Antiviral effect; details: in particular as vesicles holding antisense constructs
# Lymphome = assay: Effect on lymphomas
# Krebszellen = assay: Effect of sugar silanes on cancer cells; type: cell-based
# Osteosarkomen = assay: Antimetastatic effect in rats; type: in vivo; details: in Ratten
# Maus = assay: Pharmacological observation in the mouse (central, vegetative and toxic effects, acute toxicity); type: in vivo
# Method in brief: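 Mice given single doses of 5·10^-4, 1·10^-3 and 5·10^-3 mol/kg body weight and observed individually. Recorded: orienting lethal dose (oLD), motor activity, reactivity, skin and rectal temperature, and pupil motility.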
# [3] = system: Kälber-Aortenendothelzellinie BKEz-7; assay: tissue or blood; type: cell-based
# Excerpt: Prüfung auf zytotoxisches Potential an Kälber-Aortenendothelzellinie BKEz-7
# (§1) Als Marker für eine zytotoxische Wirkung wird bei Zellen der charakterisierten Kälber-Aortenendothelzellinie BKEz-7 die Hemmkonzentration ermittelt, bei der eine 50%-ige Hemmung der Zellproliferation erfolgt (im Vergleich zu Kontrollkulturen ohne Zusatz eines Zellinhibitors). Die resultierende Reduzierung der Zellzahl um 50% wird als IC 50 ausgedrückt. Die getesteten Silanverbindungen wurden als Suspensionen auf die Kulturen gegeben und 48 Stunden bei 37°C inkubiert. Zusätzlich erfolgten morphologische Kontrollen und Vitalitätsbestimmungen mittels dem Neutralrot-Test. Mit Ausnahme des Di(dodecanoyloxy)dimethylsilans standen alle Ergebnisse der morphologischen Untersuchungen in guter Übereinstimmung. […]
# Osteosarkome = assay: Effect on osteosarcomas
# [4] = system: Kälber-Aortenendothelzellinie BKEz-7; assay: Neutral red vitality test; type: cell-based; details: compared with the cytotoxicity test
# Protocol: as §1
# Medulloblastome [5] = assay: Effect on medulloblastomas; remark: listed apart in the source
# Entero-Viren [6] = assay: Antiviral effect; details: in particular as vesicles holding antisense constructs; remark: listed apart in the source
# Basalzellkarzinome = assay: Effect on basal cell carcinomas
# Adenokarzinome = assay: Effect on adenocarcinomas
# Hepatitis A-Viren = assay: Antiviral effect; details: in particular as vesicles holding antisense constructs
# Plasmozyten = assay: Effect against plasmocytes
# Plattenepithelkarzinome = assay: Effect on squamous cell carcinomas
structure (smiles),measurement,setting,value
CCCCCCCC/C=C\CCCCCCCC(=O)O[Si](OC(=O)CCCCCCC/C=C\CCCCCCCC)(C(C)C)C(C)C,Wirkung gegen Medulloblastome,Medulloblastome [1],zeigen eine Wirkung
same,Wirkung gegen HIV-Vren,HIV-Vren,zeigen eine Wirkung
same,Wirkung gegen Entero-Viren,Entero-Viren [2],zeigen eine Wirkung
same,Wirkung auf Lymphome,Lymphome,zeigen eine Wirkung
"CCCCCCCCCCCCCCCCCC[Si](C)(C)O[C@@H]1O[C@H](COC(C)=O)[C@@H](OC(C)=O)[C@H](OC(C)=O)[C@H]1OC(C)=O [1-O-Dimethyl(octadecyl)silyl-2,3,4,6-tetr'a-0-acteyl-ß-D-glucopyranosid]",Wirkung auf Krebszellen,Krebszellen,zeigen ebenfalls eine Wirkung
CCCCCCCCCC(=O)O[Si](OC(=O)CCCCCCCCC)(C(C)C)C(C)C [Di(decanoyloxy)diisopropylsilan],antimetastasierende Wirkung bei Osteosarkomen,Osteosarkomen,zeigen eine antimetastasierende Wirkung
CCCCCCCCCCCC(=O)O[Si](C)(C)OC(=O)CCCCCCCCCCC [Di(dodecanoyloxy)dimethylsilan],"zentrale, vegetative und toxische Effekte (Verhaltensänderungen)",Maus; 1•10^-3 mol/kg,keine Verhaltensänderungen
same,"zentrale, vegetative und toxische Effekte (Verhaltensänderungen)",Maus; 5•10^-3 mol/kg,"Ataxie, Ploerektion, Griffstärkesenkung"
same,"zentrale, vegetative und toxische Effekte (Verhaltensänderungen)",Maus; 5•10^-4 mol/kg,keine Verhaltensänderungen
same,Bedenkliche Toxizität,[3],-
same,IC50,"[3]; suspensions, 48 Stunden bei 37°C",129 µM
same,Wirkung auf Osteosarkome,Osteosarkome,zeigen eine Wirkung
same,Vitalitätsbeeinflussungen im Neutralrot-Test,[4],geringere Vitalitätsbeeinflussungen als im Zytotoxizitätstest
CC/C=C\C/C=C\C/C=C\CCCCCCCC(=O)O[Si](OC(=O)CCCCCCC/C=C\C/C=C\C/C=C\CC)(C(C)C)C(C)C [Di(linolenoylooxy) diisopropylsilan],Wirkung gegen HIV-Vren,HIV-Vren,zeigen eine Wirkung
same,Wirkung auf Lymphome,Lymphome,zeigen eine Wirkung
CCCCC/C=C\C/C=C\CCCCCCCC(=O)O[Si](OC(=O)CCCCCCC/C=C\C/C=C\CCCCC)(C(C)C)C(C)C [Di(linoylooxy)diisopropylsilan],Wirkung gegen HIV-Vren,HIV-Vren,zeigen eine Wirkung
same,Wirkung auf Lymphome,Lymphome,zeigen eine Wirkung
CCCCCCCCC(=O)O[Si](OC(=O)CCCCCCCC)(C(C)C)C(C)C [Di(nonanoyloxy)diisopropylsilan],antimetastasierende Wirkung bei Osteosarkomen,Osteosarkomen,zeigen eine antimetastasierende Wirkung
CCCCCCCCCCC(=O)O[Si](OC(=O)CCCCCCCCCC)(C(C)C)C(C)C [Di(undecanoyloxy)diisopropysilan],antimetastasierende Wirkung bei Osteosarkomen,Osteosarkomen,zeigen eine antimetastasierende Wirkung
CC[Si](CC)(OC(=O)[C@@H](NC(=O)[C@@H](NC(=O)[C@@H](N)C(C)C)C(C)C)C(C)C)OC(=O)[C@@H](NC(=O)[C@@H](NC(=O)[C@@H](N)C(C)C)C(C)C)C(C)C [Diethyl bis(trivalyl)silylester],Wirkung auf Seminome,Seminome,zeigen eine Wirkung
C[Si](C)(OC(=O)CNC(=O)CNC(=O)CNC(=O)CNC(=O)CNC(=O)CNC(=O)CNC(=O)CN)OC(=O)CNC(=O)CNC(=O)CNC(=O)CNC(=O)CNC(=O)CNC(=O)CNC(=O)CN [Dimethyl bis(octaglycyl)silylester] (I: H-GGGGGGGG / II: H-GGGGGGGG; linker I:C-II:C via X1),Wirkung gegen Medulloblastome,Medulloblastome [5],zeigen eine Wirkung
same,Wirkung gegen Entero-Viren,Entero-Viren [6],zeigen eine Wirkung
C[Si](C)(OC(=O)CNC(=O)CNC(=O)CNC(=O)CNC(=O)CN)OC(=O)CNC(=O)CNC(=O)CNC(=O)CNC(=O)CN [Dimethyl bis(pentaglycyl)silylester],Wirkung gegen Medulloblastome,Medulloblastome [5],zeigen eine Wirkung
same,Wirkung gegen Entero-Viren,Entero-Viren [6],zeigen eine Wirkung
C[Si](C)(OC(=O)[C@H](Cc1ccccc1)NC(=O)[C@H](Cc1ccccc1)NC(=O)[C@H](Cc1ccccc1)NC(=O)[C@H](Cc1ccccc1)NC(=O)[C@@H](N)Cc1ccccc1)OC(=O)[C@H](Cc1ccccc1)NC(=O)[C@H](Cc1ccccc1)NC(=O)[C@H](Cc1ccccc1)NC(=O)[C@H](Cc1ccccc1)NC(=O)[C@@H](N)Cc1ccccc1 [Dimethyl bis(pentaphenylalanyl)silylester],Wirkung auf Basalzellkarzinome,Basalzellkarzinome,zeigen eine Wirkung
C[Si](C)(OC(=O)CNC(=O)CNC(=O)CNC(=O)CN)OC(=O)CNC(=O)CNC(=O)CNC(=O)CN [Dimethyl bis(tetraglycyl)silylester],Wirkung gegen Medulloblastome,Medulloblastome [5],zeigen eine Wirkung
same,Wirkung gegen Entero-Viren,Entero-Viren [6],zeigen eine Wirkung
C[Si](C)(OC(=O)[C@H](Cc1ccccc1)NC(=O)[C@H](Cc1ccccc1)NC(=O)[C@H](Cc1ccccc1)NC(=O)[C@@H](N)Cc1ccccc1)OC(=O)[C@H](Cc1ccccc1)NC(=O)[C@H](Cc1ccccc1)NC(=O)[C@H](Cc1ccccc1)NC(=O)[C@@H](N)Cc1ccccc1 [Dimethyl bis(tetraphenylalanyl)slylester],Wirkung auf Basalzellkarzinome,Basalzellkarzinome,zeigen eine Wirkung
C[Si](C)(OC(=O)CNC(=O)CNC(=O)CN)OC(=O)CNC(=O)CNC(=O)CN [Dimethyl bis(triglycyl)silylester],Wirkung gegen Medulloblastome,Medulloblastome [5],zeigen eine Wirkung
same,Wirkung gegen Entero-Viren,Entero-Viren [6],zeigen eine Wirkung
C[Si](C)(OC(=O)[C@H](Cc1ccccc1)NC(=O)[C@H](Cc1ccccc1)NC(=O)[C@@H](N)Cc1ccccc1)OC(=O)[C@H](Cc1ccccc1)NC(=O)[C@H](Cc1ccccc1)NC(=O)[C@@H](N)Cc1ccccc1 [Dimethyl bis(triphenylalanyl)silylester],Wirkung auf Basalzellkarzinome,Basalzellkarzinome,zeigen eine Wirkung
CC(C)[C@H](N)C(=O)N[C@H](C(=O)N[C@H](C(=O)O[Si](C)(C)OC(=O)[C@@H](NC(=O)[C@@H](NC(=O)[C@@H](N)C(C)C)C(C)C)C(C)C)C(C)C)C(C)C [Dimethyl bis(trivalyl)silylester],Wirkung auf Adenokarzinome,Adenokarzinome,zeigen eine Wirkung
CCC[Si](CCC)(OC(=O)[C@H](Cc1ccccc1)NC(=O)[C@H](Cc1ccccc1)NC(=O)[C@H](Cc1ccccc1)NC(=O)[C@H](Cc1ccccc1)NC(=O)[C@H](Cc1ccccc1)NC(=O)[C@H](Cc1ccccc1)NC(=O)[C@@H](N)Cc1ccccc1)OC(=O)[C@H](Cc1ccccc1)NC(=O)[C@H](Cc1ccccc1)NC(=O)[C@H](Cc1ccccc1)NC(=O)[C@H](Cc1ccccc1)NC(=O)[C@H](Cc1ccccc1)NC(=O)[C@H](Cc1ccccc1)NC(=O)[C@@H](N)Cc1ccccc1 [Dipropyl bis(heptaphenylalanyl)silylester] (I: H-FFFFFFF / II: H-FFFFFFF; linker I:C-II:C via OSi(nPr)2O),Wirkung gegen Hepatitis A-Viren,Hepatitis A-Viren,zeigen eine Wirkung
same,Wirkung gegen Plasmozyten,Plasmozyten,zeigen eine Wirkung
CCC[Si](CCC)(OC(=O)[C@H](C)NC(=O)[C@H](C)NC(=O)[C@H](C)NC(=O)[C@H](C)N)OC(=O)[C@H](C)NC(=O)[C@H](C)NC(=O)[C@H](C)NC(=O)[C@H](C)N [Dipropyl bis(tetraalanyl)silylester] (I: H-AAAA / II: H-AAAA; linker I:C-II:C via OSi(nPr)2O),Wirkung gegen Plattenepithelkarzinome,Plattenepithelkarzinome,zeigen eine Wirkung
"CCCCCCCCCCCC[Si](C)(C)O[C@@H]1O[C@H](COC(C)=O)[C@@H](OC(C)=O)[C@H](OC(C)=O)[C@H]1OC(C)=O [Silan 12, 1-O-Dimethyl(dodecyl)silyl-2,3,4,6-tetra-0-acetyl-ß-D-glucopyrasonid]",Wirkung auf Krebszellen,Krebszellen,zeigen ebenfalls eine Wirkung

# From patent EP1948196B1, “USE OF TETRAORGANOSILICON COMPOUNDS” (Salama, Zoser B., priority 2005, dated 2007)
